Measured values taken from ChEMBL document CHEMBL1128007, “Synthesis of a galactose-fucose disaccharide mimic of sialyl Lewis X” (Bioorg Med Chem Lett, 1994).
Activity calls are given as the source filed them. The rule behind the calls is not given here.

These molecules were tested against T1, E-selectin (Homo sapiens) (UniProt P16581) (assay: Compound was tested at 0.05-100 mM concentration to inhibit ca++ mediated binding of HL-60 cells to Selectin E adsorbed onto a multi-well plate; Active).
T1 sequence (whole entry): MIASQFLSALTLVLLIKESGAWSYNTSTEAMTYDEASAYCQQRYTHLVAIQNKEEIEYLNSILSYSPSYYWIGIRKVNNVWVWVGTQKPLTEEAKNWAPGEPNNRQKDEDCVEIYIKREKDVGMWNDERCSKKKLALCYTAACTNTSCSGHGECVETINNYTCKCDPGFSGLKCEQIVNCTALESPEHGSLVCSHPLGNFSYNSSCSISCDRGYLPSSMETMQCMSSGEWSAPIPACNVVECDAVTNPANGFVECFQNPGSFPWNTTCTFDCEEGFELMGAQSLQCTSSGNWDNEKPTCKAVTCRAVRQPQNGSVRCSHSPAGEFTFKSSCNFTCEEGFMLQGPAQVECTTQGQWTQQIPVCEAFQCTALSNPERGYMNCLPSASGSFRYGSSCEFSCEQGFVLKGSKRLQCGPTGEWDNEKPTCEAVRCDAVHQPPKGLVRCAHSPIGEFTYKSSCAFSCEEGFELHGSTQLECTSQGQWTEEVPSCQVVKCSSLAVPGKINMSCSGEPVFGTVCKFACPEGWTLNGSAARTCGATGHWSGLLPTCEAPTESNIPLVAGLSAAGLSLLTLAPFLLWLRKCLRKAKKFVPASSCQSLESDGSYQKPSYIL
Assay type: cell-based

Activity, active:
COC1OC(C)C(O)(CC(=O)CCCOC2(C(=O)O)CC(O)C(NC(C)=O)C([C@@H](O)[C@H](O)CO)O2)C(O)C1O (stereo partly drawn)
CC(=O)N[C@H]1[C@H]([C@H](O)[C@H](O)CO)O[C@@](O[C@H]2[C@@H](O)[C@@H](CO)O[C@@H](O[C@@H]([C@H](O[C@@H]3O[C@@H](C)[C@@H](O)[C@@H](O)[C@@H]3O)[C@H](C=O)NC(C)=O)[C@H](O)CO)[C@@H]2O)(C(=O)O)C[C@@H]1O
CC1OC(OCCOC2CC(CO)C(O)C(OCC(=O)O)C2O)C(O)C(O)C1O (stereo not drawn)
